Key:
MET(Y1235D) = molecular target: T1, MET(Y1235D) (Homo sapiens, UniProt P08581, Y1235D); assay: kinome scan; type: binding; details: 10 µM
T1 construct: purchased DiscoverX (KINOMEscan)

BLK = molecular target: T2, BLK (Homo sapiens, UniProt P51451); assay: kinome scan; type: binding; details: 10 µM
T2 construct: purchased DiscoverX (KINOMEscan)

PIM1 = molecular target: T3, PIM1 (Homo sapiens, UniProt P11309); assay: kinome scan; type: binding
T3 construct: purchased DiscoverX (KINOMEscan)

TESK1 = molecular target: T4, TESK1 (Homo sapiens, UniProt Q15569); assay: kinome scan; type: binding; details: 10 µM
T4 construct: purchased DiscoverX (KINOMEscan)

EPHA6 = molecular target: T5, EPHA6 (Homo sapiens, UniProt Q9UF33); assay: kinome scan; type: binding; details: 10 µM
T5 construct: purchased DiscoverX (KINOMEscan)

CHEK1 = molecular target: T6, CHEK1 (Homo sapiens, UniProt O14757); assay: kinome scan; type: binding
T6 construct: purchased DiscoverX (KINOMEscan)

PYK2 = molecular target: T7, PYK2 (Homo sapiens, UniProt Q14289); assay: kinome scan; type: binding; details: 10 µM
T7 construct: purchased DiscoverX (KINOMEscan)

FER = molecular target: T8, FER (Homo sapiens, UniProt P16591); assay: kinome scan; type: binding; details: 10 µM
T8 construct: purchased DiscoverX (KINOMEscan)

PIP5K1C = molecular target: T9, PIP5K1C (Homo sapiens, UniProt O60331); assay: kinome scan; type: binding; details: 10 µM
T9 construct: purchased DiscoverX (KINOMEscan)

ACVRL1 = molecular target: T10, ACVRL1 (Homo sapiens, UniProt P37023); assay: kinome scan; type: binding; details: 10 µM
T10 construct: purchased DiscoverX (KINOMEscan)

PDGFRB = molecular target: T11, PDGFRB (Homo sapiens, UniProt P09619); assay: kinome scan; type: binding; details: 10 µM
T11 construct: purchased DiscoverX (KINOMEscan)

MAP3K15 = molecular target: T12, MAP3K15 (Homo sapiens, UniProt Q6ZN16); assay: kinome scan; type: binding; details: 10 µM
T12 construct: purchased DiscoverX (KINOMEscan)

PCTK1 = molecular target: T13, PCTK1 (Homo sapiens, UniProt Q00536); assay: kinome scan; type: binding; details: 10 µM
T13 construct: purchased DiscoverX (KINOMEscan)

CAMK4 = molecular target: T14, CAMK4 (Homo sapiens, UniProt Q16566); assay: kinome scan; type: binding; details: 10 µM
T14 construct: purchased DiscoverX (KINOMEscan)

[1] = molecular target: T15, ABL1(M351T)-phosphorylated (Homo sapiens, UniProt P00519, M351T); assay: kinome scan; type: binding; details: 10 µM
T15 construct: purchased DiscoverX (KINOMEscan)

EPHB1 = molecular target: T16, EPHB1 (Homo sapiens, UniProt P54762); assay: kinome scan; type: binding; details: 10 µM
T16 construct: purchased DiscoverX (KINOMEscan)

[2] = molecular target: T17, ABL1(F317L)-nonphosphorylated (Homo sapiens, UniProt P00519, F317L); assay: kinome scan; type: binding; details: 10 µM
T17 construct: purchased DiscoverX (KINOMEscan)

CASK = molecular target: T18, CASK (Homo sapiens, UniProt O14936); assay: kinome scan; type: binding; details: 10 µM
T18 construct: purchased DiscoverX (KINOMEscan)

FLT4 = molecular target: T19, FLT4 (Homo sapiens, UniProt P35916); assay: kinome scan; type: binding; details: 10 µM
T19 construct: purchased DiscoverX (KINOMEscan)

CHEK2 = molecular target: T20, CHEK2 (Homo sapiens, UniProt O96017); assay: kinome scan; type: binding; details: 10 µM
T20 construct: purchased DiscoverX (KINOMEscan)

LKB1 = molecular target: T21, LKB1 (Homo sapiens, UniProt Q15831); assay: kinome scan; type: binding; details: 10 µM
T21 construct: purchased DiscoverX (KINOMEscan)

TLK2 = molecular target: T22, TLK2 (Homo sapiens, UniProt Q86UE8); assay: kinome scan; type: binding; details: 10 µM
T22 construct: purchased DiscoverX (KINOMEscan)

AKT = AKT phosphorylation at the protein level in PSC; type: cell-based, mouse; details: 10 µM, 10 min, 1 and 3 h after exposure
ACVR1 = molecular target: T23, ACVR1 (Homo sapiens, UniProt Q04771); assay: kinome scan; type: binding; details: 10 µM
T23 construct: purchased DiscoverX (KINOMEscan)

EIF2AK1 = molecular target: T24, EIF2AK1 (Homo sapiens, UniProt Q9BQI3); assay: kinome scan; type: binding; details: 10 µM
T24 construct: purchased DiscoverX (KINOMEscan)

MARK1 = molecular target: T25, MARK1 (Homo sapiens, UniProt Q9P0L2); assay: kinome scan; type: binding; details: 10 µM
T25 construct: purchased DiscoverX (KINOMEscan)

MEK6 = molecular target: T26, MEK6 (Homo sapiens, UniProt P52564); assay: kinome scan; type: binding; details: 10 µM
T26 construct: purchased DiscoverX (KINOMEscan)

ABL1-phosphorylated = molecular target: T27, ABL1-phosphorylated (Homo sapiens, UniProt P00519); assay: kinome scan; type: binding; details: 10 µM
T27 construct: purchased DiscoverX (KINOMEscan)

SGK3 = molecular target: T28, SGK3 (Homo sapiens, UniProt Q96BR1); assay: kinome scan; type: binding; details: 10 µM
T28 construct: purchased DiscoverX (KINOMEscan)

SIK = molecular target: T29, SIK (Homo sapiens, UniProt P57059); assay: kinome scan; type: binding; details: 10 µM
T29 construct: purchased DiscoverX (KINOMEscan)

CLK1 = molecular target: T30, CLK1 (Homo sapiens, UniProt P49759); assay: kinome scan; type: binding; details: 10 µM
T30 construct: purchased DiscoverX (KINOMEscan)

KIT(D816H) = molecular target: T31, KIT(D816H) (Homo sapiens, UniProt P10721, D816H); assay: kinome scan; type: binding; details: 10 µM
T31 construct: purchased DiscoverX (KINOMEscan)

PKN2 = molecular target: T32, PKN2 (Homo sapiens, UniProt Q16513); assay: kinome scan; type: binding; details: 10 µM
T32 construct: purchased DiscoverX (KINOMEscan)

[3] = system: CGR8EF1αS,RLuc-Tα1,FLuc cells; assay: cell viability by propidium iodide; type: cell-based, mouse; details: up to 10 µM, 72 h
Description: The CGR8 mouse PSC were cultured as described ([Suter et al., 2009]). For neural induction, CGR8 cells were plated in 96-well plates at a density of 10,000 cells/cm^2 on gelatine-coated cell culture plates, in differentiation medium [BHK-21 medium supplemented with 20% foetal calf serum (Thermofisher), L-glutamine 2 mM (Thermofisher), non-essential amino acids (1X, Thermofisher), sodium pyruvate 1 mM (Thermofisher), penicillin/streptomycin 50 U/ml (Thermofisher)]. CGR8EF1αS,RLuc-Tα1,FLuc cells were described in ([Suter et al., 2009]) and were cultured as described above. Luminescence assays were directly performed in 96-well plates with the Dual Luciferase Reporter Assay System (Promega) according to the manufacturer’s instructions. Luminescence was measured with the SpectraMax L Microplate luminometer (Molecular Devices). Cell viability in the wells was measured by the addition of propidium iodide 1 µg/ml in 100 µL of PBS and fluorescence was assessed in each well using a FluoStar Optima reader (Pharmaceutical Technology Group at the University of Geneva).
After two days, cells were lysed for the quantification of intracellular ATP. […] After three days, cells were lysed for the quantification of F-luminescence (FLuc) and R-luminescence (RLuc) in the presence of the respective substrates.

BMPR1B = molecular target: T33, BMPR1B (Homo sapiens, UniProt O00238); assay: kinome scan; type: binding; details: 10 µM
T33 construct: purchased DiscoverX (KINOMEscan)

IRAK4 = molecular target: T34, IRAK4 (Homo sapiens, UniProt Q9NWZ3); assay: kinome scan; type: binding; details: 10 µM
T34 construct: purchased DiscoverX (KINOMEscan)

T3 sequence (P11309 whole entry): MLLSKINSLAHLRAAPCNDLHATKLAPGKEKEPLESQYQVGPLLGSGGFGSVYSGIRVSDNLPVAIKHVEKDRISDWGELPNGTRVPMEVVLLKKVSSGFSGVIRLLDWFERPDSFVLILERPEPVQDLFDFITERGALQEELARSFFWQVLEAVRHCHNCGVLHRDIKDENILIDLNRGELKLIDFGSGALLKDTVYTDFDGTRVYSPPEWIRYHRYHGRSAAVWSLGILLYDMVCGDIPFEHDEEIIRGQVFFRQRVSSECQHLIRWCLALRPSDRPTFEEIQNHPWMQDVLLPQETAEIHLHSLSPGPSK
T6 sequence (O14757 whole entry): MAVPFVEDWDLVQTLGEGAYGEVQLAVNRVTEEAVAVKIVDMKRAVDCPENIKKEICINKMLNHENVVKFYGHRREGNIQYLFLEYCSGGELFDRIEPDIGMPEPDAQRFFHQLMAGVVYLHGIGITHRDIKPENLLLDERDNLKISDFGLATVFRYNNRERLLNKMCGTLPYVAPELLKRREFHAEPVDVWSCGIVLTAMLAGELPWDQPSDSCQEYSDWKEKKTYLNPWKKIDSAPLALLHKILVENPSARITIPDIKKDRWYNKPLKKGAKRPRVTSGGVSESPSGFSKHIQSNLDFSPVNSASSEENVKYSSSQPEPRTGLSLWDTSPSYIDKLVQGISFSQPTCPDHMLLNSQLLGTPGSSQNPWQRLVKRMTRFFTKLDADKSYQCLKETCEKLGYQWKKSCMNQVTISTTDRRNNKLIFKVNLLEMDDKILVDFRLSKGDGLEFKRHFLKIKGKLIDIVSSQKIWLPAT
T20 sequence (O96017 whole entry): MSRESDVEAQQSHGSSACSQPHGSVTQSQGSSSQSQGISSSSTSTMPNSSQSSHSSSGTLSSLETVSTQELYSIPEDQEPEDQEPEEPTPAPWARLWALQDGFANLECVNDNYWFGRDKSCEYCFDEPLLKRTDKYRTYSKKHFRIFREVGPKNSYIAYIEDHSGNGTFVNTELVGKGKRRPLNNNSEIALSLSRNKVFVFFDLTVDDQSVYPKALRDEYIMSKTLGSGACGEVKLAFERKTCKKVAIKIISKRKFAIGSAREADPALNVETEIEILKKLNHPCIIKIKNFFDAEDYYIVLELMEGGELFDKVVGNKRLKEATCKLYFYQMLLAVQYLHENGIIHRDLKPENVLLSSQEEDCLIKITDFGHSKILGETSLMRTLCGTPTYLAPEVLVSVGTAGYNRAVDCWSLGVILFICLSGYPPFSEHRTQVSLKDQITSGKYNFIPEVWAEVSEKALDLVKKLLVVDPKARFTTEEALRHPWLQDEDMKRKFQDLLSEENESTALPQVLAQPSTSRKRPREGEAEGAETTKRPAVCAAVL
T26 sequence (P52564 whole entry): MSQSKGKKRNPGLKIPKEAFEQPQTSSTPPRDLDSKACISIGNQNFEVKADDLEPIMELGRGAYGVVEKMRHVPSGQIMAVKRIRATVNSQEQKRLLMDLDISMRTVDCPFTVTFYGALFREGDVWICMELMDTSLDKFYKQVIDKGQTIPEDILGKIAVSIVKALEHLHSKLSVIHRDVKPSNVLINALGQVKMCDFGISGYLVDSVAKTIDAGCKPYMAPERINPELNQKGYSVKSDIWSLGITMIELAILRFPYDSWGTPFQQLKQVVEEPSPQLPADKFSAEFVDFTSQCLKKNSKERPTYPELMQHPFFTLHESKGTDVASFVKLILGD
T21 sequence (Q15831 whole entry): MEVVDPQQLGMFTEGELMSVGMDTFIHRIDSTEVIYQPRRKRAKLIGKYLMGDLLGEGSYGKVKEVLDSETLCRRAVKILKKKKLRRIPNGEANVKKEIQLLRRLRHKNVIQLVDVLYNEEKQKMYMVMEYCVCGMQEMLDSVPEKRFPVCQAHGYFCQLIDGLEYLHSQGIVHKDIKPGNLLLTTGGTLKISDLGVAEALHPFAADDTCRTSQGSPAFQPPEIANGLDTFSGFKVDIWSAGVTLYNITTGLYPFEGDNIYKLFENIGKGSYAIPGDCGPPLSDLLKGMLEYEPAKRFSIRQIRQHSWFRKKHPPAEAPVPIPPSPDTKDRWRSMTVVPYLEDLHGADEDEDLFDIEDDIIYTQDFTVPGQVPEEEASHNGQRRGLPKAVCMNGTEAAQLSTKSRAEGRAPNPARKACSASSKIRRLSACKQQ
T28 sequence (Q96BR1 whole entry): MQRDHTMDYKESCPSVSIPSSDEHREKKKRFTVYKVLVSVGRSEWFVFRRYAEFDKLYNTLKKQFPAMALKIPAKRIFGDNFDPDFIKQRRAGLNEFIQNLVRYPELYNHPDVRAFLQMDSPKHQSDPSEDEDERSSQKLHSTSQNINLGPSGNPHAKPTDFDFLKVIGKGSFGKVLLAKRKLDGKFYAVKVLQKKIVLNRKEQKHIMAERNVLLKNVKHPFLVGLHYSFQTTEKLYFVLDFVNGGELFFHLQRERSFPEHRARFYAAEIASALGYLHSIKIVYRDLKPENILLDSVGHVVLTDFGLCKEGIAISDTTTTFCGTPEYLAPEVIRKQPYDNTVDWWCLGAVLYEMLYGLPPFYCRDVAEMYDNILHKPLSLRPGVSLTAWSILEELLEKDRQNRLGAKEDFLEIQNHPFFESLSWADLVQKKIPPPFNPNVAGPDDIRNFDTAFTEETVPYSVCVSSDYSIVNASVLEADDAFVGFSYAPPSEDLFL
T29 sequence (P57059 whole entry): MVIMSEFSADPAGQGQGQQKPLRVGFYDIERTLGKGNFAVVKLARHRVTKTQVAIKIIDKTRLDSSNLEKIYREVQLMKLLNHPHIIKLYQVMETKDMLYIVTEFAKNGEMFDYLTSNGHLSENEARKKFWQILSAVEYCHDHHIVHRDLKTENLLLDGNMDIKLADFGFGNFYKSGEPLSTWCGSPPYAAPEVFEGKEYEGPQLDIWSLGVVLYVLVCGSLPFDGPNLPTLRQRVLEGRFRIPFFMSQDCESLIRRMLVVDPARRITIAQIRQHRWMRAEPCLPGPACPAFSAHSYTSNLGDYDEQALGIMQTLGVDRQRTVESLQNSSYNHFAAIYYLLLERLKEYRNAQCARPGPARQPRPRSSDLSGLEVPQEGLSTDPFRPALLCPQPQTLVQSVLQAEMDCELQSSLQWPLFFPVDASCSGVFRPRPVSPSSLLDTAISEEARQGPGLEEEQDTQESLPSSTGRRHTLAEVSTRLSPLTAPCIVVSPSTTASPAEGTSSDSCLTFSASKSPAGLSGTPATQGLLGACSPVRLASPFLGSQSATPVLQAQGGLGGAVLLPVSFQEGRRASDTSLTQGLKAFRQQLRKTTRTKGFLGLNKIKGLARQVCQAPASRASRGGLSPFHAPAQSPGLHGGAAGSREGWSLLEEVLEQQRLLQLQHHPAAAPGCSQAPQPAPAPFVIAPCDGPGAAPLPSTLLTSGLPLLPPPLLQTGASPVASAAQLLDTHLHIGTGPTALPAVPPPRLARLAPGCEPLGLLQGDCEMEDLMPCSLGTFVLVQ
T18 sequence (O14936 whole entry): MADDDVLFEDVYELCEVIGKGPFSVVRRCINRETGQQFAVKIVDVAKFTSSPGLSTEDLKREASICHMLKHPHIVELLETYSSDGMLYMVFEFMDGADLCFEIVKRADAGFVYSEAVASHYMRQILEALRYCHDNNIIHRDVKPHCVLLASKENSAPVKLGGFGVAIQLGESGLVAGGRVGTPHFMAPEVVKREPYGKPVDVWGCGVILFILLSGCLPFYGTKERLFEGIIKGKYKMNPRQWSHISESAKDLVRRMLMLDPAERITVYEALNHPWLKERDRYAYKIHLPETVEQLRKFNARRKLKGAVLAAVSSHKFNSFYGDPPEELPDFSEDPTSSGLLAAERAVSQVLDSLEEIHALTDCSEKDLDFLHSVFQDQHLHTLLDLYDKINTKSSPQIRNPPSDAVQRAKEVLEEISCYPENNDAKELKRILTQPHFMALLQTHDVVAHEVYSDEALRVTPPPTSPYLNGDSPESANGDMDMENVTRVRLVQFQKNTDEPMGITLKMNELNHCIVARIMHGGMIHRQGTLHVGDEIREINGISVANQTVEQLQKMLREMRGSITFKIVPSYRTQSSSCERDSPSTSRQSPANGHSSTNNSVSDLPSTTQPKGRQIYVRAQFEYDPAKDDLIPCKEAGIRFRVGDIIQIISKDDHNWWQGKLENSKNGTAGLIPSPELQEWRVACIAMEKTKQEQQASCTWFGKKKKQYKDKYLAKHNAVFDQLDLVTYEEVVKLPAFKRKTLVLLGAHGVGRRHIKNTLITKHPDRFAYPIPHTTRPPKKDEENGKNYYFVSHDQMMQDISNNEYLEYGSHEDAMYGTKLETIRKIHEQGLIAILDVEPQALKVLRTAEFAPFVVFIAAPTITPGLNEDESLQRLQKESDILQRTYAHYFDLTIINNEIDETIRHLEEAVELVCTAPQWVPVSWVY
T9 sequence (O60331 whole entry): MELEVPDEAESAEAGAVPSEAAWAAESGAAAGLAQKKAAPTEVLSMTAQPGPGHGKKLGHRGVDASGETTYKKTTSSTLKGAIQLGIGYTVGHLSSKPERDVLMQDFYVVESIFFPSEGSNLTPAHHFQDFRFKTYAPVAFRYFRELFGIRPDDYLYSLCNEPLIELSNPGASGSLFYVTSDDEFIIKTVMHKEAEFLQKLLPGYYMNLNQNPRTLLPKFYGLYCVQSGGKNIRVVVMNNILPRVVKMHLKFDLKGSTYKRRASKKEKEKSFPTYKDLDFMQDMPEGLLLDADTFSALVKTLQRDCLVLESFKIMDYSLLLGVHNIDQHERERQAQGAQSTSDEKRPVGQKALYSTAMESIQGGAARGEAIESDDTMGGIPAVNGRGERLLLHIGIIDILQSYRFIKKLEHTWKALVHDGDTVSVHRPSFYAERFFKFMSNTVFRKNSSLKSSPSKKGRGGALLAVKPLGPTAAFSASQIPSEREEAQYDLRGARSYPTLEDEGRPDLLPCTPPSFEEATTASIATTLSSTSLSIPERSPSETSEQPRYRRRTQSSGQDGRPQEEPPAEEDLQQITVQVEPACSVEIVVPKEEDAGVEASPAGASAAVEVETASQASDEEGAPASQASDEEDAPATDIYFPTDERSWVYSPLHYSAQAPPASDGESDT

Nc1ccc(N=Nc2ccccc2)c(N)n1 [phenazopyridine, 2,6-diamino-3-(phenylazo)pyridine]
kinase inhibition (MET(Y1235D)): 100 | remaining binding (% of control) (BLK): 100 | remaining binding (% of control) (PIM1; 10 µM): 100 | remaining binding at 10 µM (PIM1; read-out: Kinome scan (% of control at 10 µM)): 100% | kinase inhibition (TESK1): 100 | kinase inhibition (EPHA6): 91 | kinase inhibition (CHEK1; CHEK1, 10 µM): 100 | remaining binding at 10 µM (CHEK1; CHK1, read-out: Kinome scan (% of control at 10 µM)): 100% | kinase inhibition (PYK2): 100 | kinase inhibition (FER): 100 | kinase inhibition (PIP5K1C): 42 | kinase inhibition (ACVRL1): 71 | kinase inhibition (PDGFRB): 44 | kinase inhibition (MAP3K15): 94 | kinase inhibition (PCTK1): 98 | kinase inhibition (CAMK4): 67 | kinase inhibition [1]: 85 | kinase inhibition (EPHB1): 100 | kinase inhibition [2]: 67 | kinase inhibition (CASK): 99 | kinase inhibition (FLT4): 100 | kinase inhibition (CHEK2): 99 | kinase inhibition (LKB1): 88 | kinase inhibition (TLK2): 100 | phosphorylation of AKT (AKT): reduced phosphorylation of AKT | kinase inhibition (ACVR1): 100 | kinase inhibition (EIF2AK1): 100 | kinase inhibition (MARK1): 95 | kinase inhibition (MEK6): 95 | kinase inhibition (ABL1-phosphorylated): 67 | kinase inhibition (SGK3): 100 | kinase inhibition (SIK): 100 | kinase inhibition (CLK1): 91 | kinase inhibition (KIT(D816H)): 85 | kinase inhibition (PKN2): 100 | toxicity (signal in the presence of propidium iodide) [3]: without any toxicity | kinase inhibition (BMPR1B): 95 | kinase inhibition (IRAK4): 100
